# Tests used:
# SWELL1 protein = tested on: T1, SWELL1 protein; assay: SWELL1 protein in skeletal muscle and liver of treated T2D mice; type: in vivo, mouse
# T1 construct: from tissue; host or cells: soleus muscle of HFD-T2D mice; liver of T2D KKA^y mice
# Procedure: (§1) Adipocytes were washed twice in ice-cold phosphate buffer saline and lysed in RIPA buffer (150 mM NaCl, 20 mM HEPES, 1% NP-40, 5 mM EDTA, pH 7.4) with proteinase/phosphatase inhibitors (Roche). The cell lysate was further sonicated in 10 s cycle intervals 2–3 times and centrifuged at 18,407×g for 30 min at 4 °C and repeated one more time to remove the excess fat. The supernatant was collected and further estimated for protein concentration using a DC protein assay kit (Bio-Rad). Fat and liver tissues were homogenized and suspended in RIPA buffer with inhibitors and further processed in a similar fashion as described above. HUVECs were also prepared in a similar fashion except the lysates were spun only once to remove the cells debris to obtain the clear supernatant. For islets, either human or mouse islets were washed twice with phosphate buffer saline (PBS) and lysed using RIPA buffer containing protease and phosphatase inhibitors. The lysate was further clarified by freezing in liquid nitrogen for about 10 s for three cycles. The supernatant was collected from the whole lysate centrifuged at 16,260×g for 20 min at 4 °C. […] The images were further analyzed for band intensities using ImageJ software. […]
# [1] = design: method as in Zhang et al., Experimental Neurology, 2008; settings: ref Zhang et al., Experimental Neurology, 2008; cited from earlier work
# murine islets = assay: GSIS perifusion of palmitate-treated murine islets; type: cell-based, mouse; settings: 10 µM for 4 days prior to and during 1 mM palmitate 16 h, washed off during GSIS
# [2] = tested on: T2, SWELL1 protein in adipose tissue; assay: SWELL1 protein in adipose tissue of treated T2D mice; type: in vivo, mouse
# T2 construct: from tissue; host or cells: eWAT of HFD-fed C57BL/6 mice; inguinal fat of KKA^y mice
# Procedure: All compounds were dissolved in Kolliphor® EL (Sigma, #C5135).
# as §1
# primary hepatocytes = assay: Signaling in cultured primary hepatocytes; type: cell-based, mouse; settings: 10 µM, 24–48 h, SWELL1-dependent
# Procedure: For primary hepatocytes isolation, the SWELL1^fl/fl (Wildtype, WT) and Albumin-Cre/SWELL1^fl/fl (Knockout, KO) mice were anesthetized using isoflurane. A 24 G i.v. catheter was inserted into the portal vein and a buffer containing HBSS (Ca^2+ and Mg^2+ free) + 0.5 mM EGTA was perfused through the liver at a rate of 4.5 mL/min. The portal vein was quickly cut after the perfusion began. The liver was perfused until it was free from blood and subsequently perfused with DMEM + 1x Pyruvate+ Type IV Collagenase (Sigma C5138) (1 mg/mL) for 4–5 min until the liver was soft. The liver was excised and put into 10 mL DMEM + collagenase solution. The tissue was broken down by agitation and passed through 25- and 10-mL pipette until the cells were free. The cells were suspended in 15 mL cold DMEM + 10% FBS + 1% P/S (penicillin and streptomycin). The cells were then passed through a 100 µm filter and spun at 50×g for 2 min. The supernatant was discarded and the cell pellet was washed with 25 mL of DMEM + 10% FBS + 1% P/S media three times. Cells were checked for viability by diluting 1:2 with Trypan blue and batches with >80% viability were used. The hepatocytes were then plated on Type I Collagen (75 µg/mL) coated dish with a density of 500,000 cells per well (6-well) in DMEM + 10% FBS + 1% P/S media.
# ICl,SWELL = tested on: ICl,SWELL; design: method as in PMID 11724753; settings: cited from earlier work
smiles,measurement,setting,value
"CCCCC1(C2CCCC2)Cc2cc(OCCCC(=O)O)c(Cl)c(Cl)c2C1=O (centres unmarked) [SN-401, 4-((2-butyl-6,7-dichloro-2-cyclopentyl-1-oxo-2,3-dihydro-1H-inden-5-yl)oxy)butanoic acid]",SWELL1 induction in skeletal muscle,"SWELL1 protein; HFD-T2D mice (18 weeks HFD), 5 mg/kg i.p. 4 days",trend toward SN-401 mediated SWELL1 induction
same,hepatic SWELL1 protein,"SWELL1 protein; T2D KKAy mice, 5 mg/kg i.p. 5 days",does not induce
same,blood brain barrier passage,[1],does not cross the blood brain barrier
same,glucose-stimulated insulin secretion after palmitate,murine islets,normalized
same,SWELL1 expression in adipose tissue,"[2]; HFD-fed T2D mice, 5 mg/kg i.p.",twofold
same,SWELL1 expression in adipose tissue,"[2]; KKAy T2D mice, 5 mg/kg i.p. × 5 days",threefold
same,pAS160 in primary hepatocytes,primary hepatocytes,robustly induces
same,IC50,"ICl,SWELL",~5 µM

# Reference: paper PMC8831520, “Small molecule SWELL1 complex induction improves glycemic control and nonalcoholic fatty liver disease in murine Type 2 diabetes” (Nature Communications, 2022)
